Measurements as given in ChEMBL document CHEMBL1201862, “PubChem BioAssay data set” (2004).
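Cultured in 96-well plates, cells were exposed to test compound for 48 hours across five concentrations. GI50 = concentration required for 50% inhibition of growth.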 Activity calls are given as the source filed them. Rule as the data show it: active = GI50 up to about 1.1 µM and inactive = higher.

What was measured:
Experiment in all cases: inhibition of tumour cell growth, NCI panel, 48 h
A498 = tested on: A498
A549 = tested on: A549
CAKI-1 = tested on: CAKI-1
DU-145 = tested on: DU-145
EKVX = tested on: EKVX
HCC 2998 = tested on: HCC 2998
HCT-116 = tested on: HCT-116
HL-60 = tested on: HL-60
HOP-62 = tested on: HOP-62
LOX IMVI = tested on: LOX IMVI
Malme-3M = tested on: Malme-3M
NCI-H23 = tested on: NCI-H23
OVCAR-8 = tested on: OVCAR-8
SF-268 = tested on: SF-268
SF-539 = tested on: SF-539
SK-MEL-5 = tested on: SK-MEL-5
SW-620 = tested on: SW-620
TK-10 = tested on: TK-10
T47D = tested on: T47D
BT-549 = tested on: BT-549

Structure (SMILES)	GI50 (A498)	GI50 (A549)	GI50 (CAKI-1)	GI50 (DU-145)	GI50 (EKVX)	GI50 (HCC 2998)	GI50 (HCT-116)	GI50 (HL-60)	GI50 (HOP-62)	GI50 (LOX IMVI)	GI50 (Malme-3M)	GI50 (NCI-H23)	GI50 (OVCAR-8)	GI50 (SF-268)	GI50 (SF-539)	GI50 (SK-MEL-5)	GI50 (SW-620)	GI50 (TK-10)	GI50 (T47D)	GI50 (BT-549)
COC(=O)c1ccc(C)cc1C1CN=NC12Cc1cc(C)c(C)cc1C2=O (configuration not stated)	57.4 µM (inactive)	34.4 µM (inactive)	79.8 µM (inactive)	59.2 µM (inactive)	24.3 µM (inactive)	29.8 µM (inactive)	24.2 µM (inactive)	19.7 µM (inactive)	> 100 µM (inactive)	25.9 µM (inactive)	30.5 µM (inactive)	40.6 µM (inactive)	65 µM (inactive)	36.6 µM (inactive)	50.6 µM (inactive)	14.9 µM (inactive)	35.6 µM (inactive)	> 100 µM (inactive)	–	–
C[n+]1ccc2[nH]c3ccccc3c2c1	90.2 µM (inactive)	> 100 µM (inactive)	> 100 µM (inactive)	–	> 100 µM (inactive)	> 100 µM (inactive)	48.6 µM (inactive)	> 100 µM (inactive)	> 52.8 µM (inactive)	> 100 µM (inactive)	35.6 µM (inactive)	> 100 µM (inactive)	> 100 µM (inactive)	> 100 µM (inactive)	> 100 µM (inactive)	> 78.3 µM (inactive)	> 86.3 µM (inactive)	> 100 µM (inactive)	–	–
CC12CCC(C(=O)OC1=O)C2(C)C (configuration not stated)	> 100 µM (inactive)	–	–	> 100 µM (inactive)	–	> 100 µM (inactive)	> 100 µM (inactive)	32.1 µM (inactive)	> 100 µM (inactive)	> 100 µM (inactive)	> 100 µM (inactive)	1.67 µM (inactive)	> 100 µM (inactive)	> 100 µM (inactive)	> 100 µM (inactive)	–	> 100 µM (inactive)	> 100 µM (inactive)	> 100 µM (inactive)	–
Cc1ccc(NC(=O)CC(=O)n2nc(C)c(/N=N/c3ccc(S(=O)(=O)CCOS(=O)(=O)O)cc3)c2C)cc1	> 100 µM (inactive)	> 100 µM (inactive)	–	> 100 µM (inactive)	> 100 µM (inactive)	> 100 µM (inactive)	> 100 µM (inactive)	> 100 µM (inactive)	> 100 µM (inactive)	> 100 µM (inactive)	> 100 µM (inactive)	> 100 µM (inactive)	> 100 µM (inactive)	> 100 µM (inactive)	> 100 µM (inactive)	> 100 µM (inactive)	> 100 µM (inactive)	> 100 µM (inactive)	> 100 µM (inactive)	–
O=C(C#CP(=O)(O)c1ccccc1)c1ccccc1	> 100 µM (inactive)	> 100 µM (inactive)	> 100 µM (inactive)	> 100 µM (inactive)	> 100 µM (inactive)	> 100 µM (inactive)	> 100 µM (inactive)	–	> 100 µM (inactive)	> 100 µM (inactive)	> 100 µM (inactive)	> 100 µM (inactive)	> 100 µM (inactive)	> 100 µM (inactive)	> 100 µM (inactive)	> 100 µM (inactive)	> 100 µM (inactive)	> 100 µM (inactive)	> 100 µM (inactive)	–
COc1cc2c(cc1OC)C1C3CCCCC3CCN1CC2 (configuration not stated)	> 100 µM (inactive)	91.2 µM (inactive)	> 100 µM (inactive)	> 100 µM (inactive)	> 100 µM (inactive)	> 100 µM (inactive)	48.6 µM (inactive)	> 100 µM (inactive)	> 100 µM (inactive)	> 100 µM (inactive)	> 100 µM (inactive)	> 100 µM (inactive)	> 100 µM (inactive)	> 100 µM (inactive)	> 100 µM (inactive)	> 100 µM (inactive)	> 100 µM (inactive)	> 100 µM (inactive)	> 100 µM (inactive)	–
CCOc1ccc(OCC)c([P+](c2ccccc2)(c2ccccc2)c2ccccc2)c1	0.785 µM (active)	0.443 µM (active)	1.29 µM (inactive)	–	1.1 µM (active)	0.305 µM (active)	0.27 µM (active)	0.114 µM (active)	1.07 µM (active)	0.35 µM (active)	1.28 µM (inactive)	0.254 µM (active)	0.358 µM (active)	0.617 µM (active)	0.685 µM (active)	0.267 µM (active)	0.44 µM (active)	0.495 µM (active)	–	–
COC(=O)c1cc2c(c(C(=O)OC)c1)CCC2	63.7 µM (inactive)	> 100 µM (inactive)	20.7 µM (inactive)	> 100 µM (inactive)	> 100 µM (inactive)	> 100 µM (inactive)	76.6 µM (inactive)	70.6 µM (inactive)	> 100 µM (inactive)	82.4 µM (inactive)	> 100 µM (inactive)	> 100 µM (inactive)	> 100 µM (inactive)	> 100 µM (inactive)	> 100 µM (inactive)	56.1 µM (inactive)	> 100 µM (inactive)	> 100 µM (inactive)	63.5 µM (inactive)	–
NC1CC2C3CCC2C1C3=O (configuration not stated)	> 100 µM (inactive)	> 100 µM (inactive)	> 100 µM (inactive)	> 100 µM (inactive)	> 100 µM (inactive)	> 100 µM (inactive)	> 100 µM (inactive)	> 100 µM (inactive)	> 100 µM (inactive)	> 100 µM (inactive)	> 100 µM (inactive)	> 100 µM (inactive)	> 100 µM (inactive)	> 100 µM (inactive)	> 100 µM (inactive)	> 100 µM (inactive)	> 100 µM (inactive)	> 100 µM (inactive)	> 100 µM (inactive)	–
CCc1ccccc1NC(=O)C1=C(C)NC(C)=C(C(=O)Nc2ccccc2CC)C1c1ccccc1Cl	18.7 µM (inactive)	> 100 µM (inactive)	> 100 µM (inactive)	–	> 100 µM (inactive)	> 100 µM (inactive)	> 100 µM (inactive)	64.6 µM (inactive)	> 100 µM (inactive)	> 100 µM (inactive)	> 100 µM (inactive)	> 100 µM (inactive)	> 100 µM (inactive)	> 100 µM (inactive)	> 100 µM (inactive)	> 100 µM (inactive)	> 100 µM (inactive)	> 100 µM (inactive)	–	–
O=c1[nH]c(=O)n(COCc2ccccc2)cc1Nc1ccc(Br)cc1	> 100 µM (inactive)	> 100 µM (inactive)	> 100 µM (inactive)	> 100 µM (inactive)	> 100 µM (inactive)	> 100 µM (inactive)	> 100 µM (inactive)	> 100 µM (inactive)	17.1 µM (inactive)	> 100 µM (inactive)	–	> 100 µM (inactive)	–	28.5 µM (inactive)	–	> 100 µM (inactive)	> 100 µM (inactive)	–	–	> 100 µM (inactive)
CC1=C(C(=O)Nc2ccccc2)C(c2ccccc2Cl)C(C(=O)Nc2ccccc2)=C(C)N1	27.8 µM (inactive)	41.6 µM (inactive)	27.9 µM (inactive)	–	14.3 µM (inactive)	21.2 µM (inactive)	22.6 µM (inactive)	< 0.01 µM (active)	20.1 µM (inactive)	18.6 µM (inactive)	20 µM (inactive)	26.4 µM (inactive)	29.4 µM (inactive)	24.4 µM (inactive)	20 µM (inactive)	15.2 µM (inactive)	30.7 µM (inactive)	38.7 µM (inactive)	–	–
C/C(=N\NC(N)=S)c1ccc2c(c1)Sc1ccccc1O2	2.59 µM (inactive)	2.5 µM (inactive)	1.04 µM (active)	28.1 µM (inactive)	1.24 µM (inactive)	1.66 µM (inactive)	2.69 µM (inactive)	3.88 µM (inactive)	3.46 µM (inactive)	2.62 µM (inactive)	5.53 µM (inactive)	3.7 µM (inactive)	2.48 µM (inactive)	2.36 µM (inactive)	2.26 µM (inactive)	1.58 µM (inactive)	2.56 µM (inactive)	3.73 µM (inactive)	6.61 µM (inactive)	–
COC(CN(C)C(=S)Nc1cccc2ccccc12)OC	> 10 µM (inactive)	> 10 µM (inactive)	> 10 µM (inactive)	> 10 µM (inactive)	> 10 µM (inactive)	> 10 µM (inactive)	> 10 µM (inactive)	> 10 µM (inactive)	> 10 µM (inactive)	> 10 µM (inactive)	> 10 µM (inactive)	> 10 µM (inactive)	> 10 µM (inactive)	> 10 µM (inactive)	> 10 µM (inactive)	> 10 µM (inactive)	> 10 µM (inactive)	> 10 µM (inactive)	> 10 µM (inactive)	–
N#CC12CC(C=O)=C(N)C1(C#N)CC(C=O)=C2N (configuration not stated)	> 100 µM (inactive)	> 100 µM (inactive)	> 100 µM (inactive)	46 µM (inactive)	> 100 µM (inactive)	26.5 µM (inactive)	47.3 µM (inactive)	23.7 µM (inactive)	65.9 µM (inactive)	34.4 µM (inactive)	50.8 µM (inactive)	28.3 µM (inactive)	63.7 µM (inactive)	31.1 µM (inactive)	81.8 µM (inactive)	20.8 µM (inactive)	49.7 µM (inactive)	> 100 µM (inactive)	37.8 µM (inactive)	–
COC(=O)N/N=C(\C)c1sc(-c2nc(C)c(/C(C)=N/NC(=O)OC)s2)nc1C	> 100 µM (inactive)	> 100 µM (inactive)	> 100 µM (inactive)	–	> 100 µM (inactive)	> 100 µM (inactive)	> 100 µM (inactive)	39.1 µM (inactive)	> 100 µM (inactive)	64.1 µM (inactive)	> 100 µM (inactive)	> 100 µM (inactive)	> 100 µM (inactive)	> 100 µM (inactive)	> 100 µM (inactive)	> 100 µM (inactive)	–	> 100 µM (inactive)	–	–
